From ChEMBL document CHEMBL4715725, “Structure-activity relationship studies on acremomannolipin A, the potent calcium signal modulator with a novel glycolipid structure 4: Role of acyl side chains on d-mannose” (Eur J Med Chem, 2016)
The source made the active and inactive calls. The calls are words filed in the database; no cut-off is given here.

Test system: Schizosaccharomyces pombe
Assay: Suppression of Cl-sensitive growth defect in Schizosaccharomyces pombe harboring h+leu1 ura4-D18 ppb1::ura4+ mutant assessed as colony formation at 100 uM measured after 3 days in presence of MgCl2 by disc filter paper
Assay type: functional, organism-based
Conditions: time 3.0 day

SMILES | Activity
CCCCCCC(=O)OC[C@H]1O[C@@H](OC[C@@H](O)[C@@H](O)[C@H](O)[C@H](O)CO)[C@@H](OC(=O)CCCCCC)[C@@H](OC(=O)CCCCCC)[C@@H]1OC(=O)CCCCCC | Active
CCCCCCCCCCCCCCCC(=O)O[C@@H]1[C@H](OC[C@@H](O)[C@@H](O)[C@H](O)[C@H](O)CO)O[C@H](COC(=O)CCCCC)[C@@H](OC(=O)CCCCC)[C@@H]1OC(=O)CCCCC | Active
CCCCCCC(=O)O[C@@H]1[C@H](OC[C@@H](O)[C@@H](O)[C@H](O)[C@H](O)CO)O[C@H](COC(=O)CCCCC)[C@@H](OC(=O)CCCCC)[C@@H]1OC(=O)CCCCC | Active
CCC(=O)OC[C@H]1O[C@@H](OC[C@@H](O)[C@@H](O)[C@H](O)[C@H](O)CO)[C@@H](OC(=O)CC)[C@@H](OC(=O)CC)[C@@H]1OC(=O)CC | Active
CCCCCCCCCCC(=O)O[C@@H]1[C@H](OC[C@@H](O)[C@@H](O)[C@H](O)[C@H](O)CO)O[C@H](COC(=O)CCCCC)[C@@H](OC(=O)CCCCC)[C@@H]1OC(=O)CCCCC | Active
CCCCCCCC(=O)O[C@@H]1[C@H](OC[C@@H](O)[C@@H](O)[C@H](O)[C@H](O)CO)O[C@H](COC(=O)CCC)[C@@H](OC(=O)CCC)[C@@H]1OC(=O)CCC | Active
CCCCCCCCCCCC(=O)O[C@@H]1[C@H](OC[C@@H](O)[C@@H](O)[C@H](O)[C@H](O)CO)O[C@H](COC(=O)CCCCC)[C@@H](OC(=O)CCCCC)[C@@H]1OC(=O)CCCCC | Active
CCCCCCCCCC(=O)O[C@@H]1[C@H](OC[C@@H](O)[C@@H](O)[C@H](O)[C@H](O)CO)O[C@H](COC(=O)CCCCC)[C@@H](OC(=O)CCCCC)[C@@H]1OC(=O)CCCCC | Active
CCCCCC(=O)OC[C@H]1O[C@@H](OC[C@@H](O)[C@@H](O)[C@H](O)[C@H](O)CO)[C@@H](OC(=O)CCCCC)[C@@H](OC(=O)CCCCC)[C@@H]1OC(=O)CCCCC | Active
CCCCCC(=O)OC[C@H]1O[C@@H](OC[C@@H](O)[C@@H](O)[C@H](O)[C@H](O)CO)[C@@H](OC(=O)CCCC)[C@@H](OC(=O)CCCCC)[C@@H]1OC(=O)CCCCC | Active
CCCC(=O)OC[C@H]1O[C@@H](OC[C@@H](O)[C@@H](O)[C@H](O)[C@H](O)CO)[C@@H](OC(=O)CCC)[C@@H](OC(=O)CCC)[C@@H]1OC(=O)CCC | Active
CCCCCCCC(=O)O[C@@H]1[C@H](OC[C@@H](O)[C@@H](O)[C@H](O)[C@H](O)CO)O[C@H](CO)[C@@H](O)[C@@H]1OC(=O)CCCCC | inactive
CCCCC(=O)OC[C@H]1O[C@@H](OC[C@@H](O)[C@@H](O)[C@H](O)[C@H](O)CO)[C@@H](OC(=O)CCCC)[C@@H](OC(=O)CCCC)[C@@H]1OC(=O)CCCC | Active
CCCCCCCC(=O)O[C@@H]1[C@H](OC[C@@H](O)[C@@H](O)[C@H](O)[C@H](O)CO)O[C@H](COC(=O)CCCC)[C@@H](OC(=O)CCCC)[C@@H]1OC(=O)CCCC | Active
CCCCCCCC(=O)OC[C@H]1O[C@@H](OC[C@@H](O)[C@@H](O)[C@H](O)[C@H](O)CO)[C@@H](OC(=O)CCCCCCC)[C@@H](OC(=O)CCCCCCC)[C@@H]1OC(=O)CCCCCCC | Active
CCCCCCCCC(=O)O[C@@H]1[C@H](OC[C@@H](O)[C@@H](O)[C@H](O)[C@H](O)CO)O[C@H](COC(=O)CCCCC)[C@@H](OC(=O)CCCCC)[C@@H]1OC(=O)CCCCC | Active
CCCCCCCC(=O)O[C@@H]1[C@H](OC[C@@H](O)[C@@H](O)[C@H](O)[C@H](O)CO)O[C@H](COC(=O)CCCCC)[C@@H](OC(=O)CCCCC)[C@@H]1OC(=O)CCCCC | Active
CCCCCCCC(=O)O[C@@H]1[C@H](OC[C@@H](O)[C@@H](O)[C@H](O)[C@H](O)CO)O[C@H](COC(=O)CCCCC)[C@@H](OC(=O)CCCCC)[C@@H]1O | inactive
CCCCCC(=O)OC[C@H]1O[C@@H](OC[C@@H](O)[C@@H](O)[C@H](O)[C@H](O)CO)[C@@H](OC(=O)CCC)[C@@H](OC(=O)CCCCC)[C@@H]1OC(=O)CCCCC | Active
CCCCCC(=O)OC[C@H]1O[C@@H](OC[C@@H](O)[C@@H](O)[C@H](O)[C@H](O)CO)[C@@H](O)[C@@H](OC(=O)CCCCC)[C@@H]1OC(=O)CCCCC | inactive
CCCCCCCC(=O)O[C@@H]1[C@H](OC[C@@H](O)[C@@H](O)[C@H](O)[C@H](O)CO)O[C@H](COC(=O)CCCCCC)[C@@H](OC(=O)CCCCCC)[C@@H]1OC(=O)CCCCCC | Active
CCCCCCCC(=O)O[C@@H]1[C@H](OC[C@@H](O)[C@@H](O)[C@H](O)[C@H](O)CO)O[C@H](COC(=O)CC)[C@@H](OC(=O)CC)[C@@H]1OC(=O)CC | Active
CCCCCCCCCCCCCC(=O)O[C@@H]1[C@H](OC[C@@H](O)[C@@H](O)[C@H](O)[C@H](O)CO)O[C@H](COC(=O)CCCCC)[C@@H](OC(=O)CCCCC)[C@@H]1OC(=O)CCCCC | Active
CCCCCC(=O)OC[C@H]1O[C@@H](OC[C@@H](O)[C@@H](O)[C@H](O)[C@H](O)CO)[C@@H](OC(=O)CC)[C@@H](OC(=O)CCCCC)[C@@H]1OC(=O)CCCCC | Active
